Reference: the NIST ThermoML archive (doi:10.1021/acs.jced.7b00518)
Numbers after ± are expanded uncertainties.

Columns and labels:
[1] = Molar enthalpy of transition or fusion; conditions: Crystal; DSC
[2] = Crystal; DTA

**Q.** With `O=C(O)/C=C/C(=O)O.OCCOCCN1CCN(C2=Nc3ccccc3Sc3ccccc32)CC1.OCCOCCN1CCN(C2=Nc3ccccc3Sc3ccccc32)CC1` [quetiapine fumarate] as the compound, how does the “Molar enthalpy of transition or fusion” value [1] read?
**A.** The value was 17.8 ± 0.478 kcal/mol.

**Q.** What about the Normal melting temperature [2] of the same compound?
**A.** The Normal melting temperature was 173.47 ± 0.61 °C.
